Laboratory results from patent US20140296212A1, “SUBSTITUTED PHENOXYPROPYLCYCLOAMINE DERIVATIVES AS HISTAMINE-3 (H3) RECEPTOR LIGANDS” (CEPHALON, INC., priority 2009, published 2014).

What was measured:
human H3 receptor = biological target: T1, human H3 receptor (Homo sapiens, UniProt Q9Y5N1); assay: Human H3 radioligand binding ([3H]-N-alpha-methylhistamine, SPA); conditions: membranes of CHO cells expressing human H3
T1 construct: expressed in transfected cells
How it was run: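 Membranes from H3-expressing cells (10 μg protein/well) in 50 mM Tris HCl pH 7.4, 5 mM MgCl2, 0.1% BSA with ~1 nM [3H]-N-alpha-methylhistamine and compound (0.01 nM–30 μM), SPA beads, 4 h, room temperature, dark. Non-specific binding defined with 10 μM clobenpropit; bound radioligand read by scintillation counting.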

[1] = biological target: T2, rat histamine H3 receptor (Rattus norvegicus, UniProt Q9QYN8); assay: Rat H3 radioligand binding ([3H]-N-alpha-methylhistamine, SPA); conditions: membranes of CHO-A3 cells expressing rat H3; [3H]-N-alpha-methylhistamine; read-out: Rat H3 Ki
T2 construct: encoding the entire 445-amino-acid rat histamine H3 receptor; expressed in transfected cells
T2 sequence (Q9QYN8 whole entry): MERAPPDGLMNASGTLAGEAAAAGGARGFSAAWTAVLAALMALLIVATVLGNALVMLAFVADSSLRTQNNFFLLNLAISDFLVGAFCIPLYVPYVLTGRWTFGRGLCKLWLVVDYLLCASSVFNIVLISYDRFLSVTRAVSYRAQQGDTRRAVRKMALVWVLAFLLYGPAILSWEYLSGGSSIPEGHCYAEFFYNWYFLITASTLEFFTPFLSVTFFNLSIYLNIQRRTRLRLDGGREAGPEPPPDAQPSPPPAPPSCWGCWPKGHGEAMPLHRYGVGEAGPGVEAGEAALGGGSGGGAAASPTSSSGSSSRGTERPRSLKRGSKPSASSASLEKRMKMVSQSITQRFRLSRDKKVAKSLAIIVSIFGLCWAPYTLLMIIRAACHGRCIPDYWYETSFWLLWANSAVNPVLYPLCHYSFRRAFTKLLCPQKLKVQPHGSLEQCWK
How it was run: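 Membranes from CHO-A3 cells stably expressing full-length rat H3 receptor (445 aa) incubated with ~1 nM [3H]-N-alpha-methylhistamine and compound (0.01 nM–30 μM) in 50 mM Tris HCl pH 7.4, 5 mM MgCl2, 0.1% BSA, 4 h, room temperature; SPA bead read-out. Non-specific binding defined with 10 μM clobenpropit.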

T1 sequence (Q9Y5N1 whole entry): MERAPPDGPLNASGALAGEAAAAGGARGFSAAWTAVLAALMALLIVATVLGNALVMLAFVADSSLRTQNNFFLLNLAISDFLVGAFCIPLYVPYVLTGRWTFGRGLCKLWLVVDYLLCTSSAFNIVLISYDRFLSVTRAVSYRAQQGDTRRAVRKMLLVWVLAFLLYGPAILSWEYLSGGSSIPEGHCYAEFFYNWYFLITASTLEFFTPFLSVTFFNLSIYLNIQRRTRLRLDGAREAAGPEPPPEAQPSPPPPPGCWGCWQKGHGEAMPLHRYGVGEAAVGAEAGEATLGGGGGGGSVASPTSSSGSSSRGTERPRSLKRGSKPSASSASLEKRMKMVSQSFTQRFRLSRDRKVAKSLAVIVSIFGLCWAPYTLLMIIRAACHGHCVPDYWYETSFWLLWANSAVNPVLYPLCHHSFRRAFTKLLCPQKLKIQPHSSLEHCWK

Structure (SMILES) | melting point | Ki (human H3 receptor) [µM] | Ki [1] [µM]
CC(=O)N1CCN(CC(=O)c2cc(C)c(OCCCN3CCC[C@H]3C)c(C)c2)CC1 [Example 97, 2-(4-Acetyl-piperazin-1-yl)-1-{3,5-dimethyl-4-[3-((R)-2-methyl-pyrrolidin-1-yl)-propoxy]-phenyl}-ethanone] | 118 to 119 °C | 0.101 to 0.5 | 0.501 to 1
C[C@@H]1CCCN1CCCOc1ccc(C(=O)CN2CCN(C(=O)Oc3ccc(F)cc3)CC2)cc1 [Example 149, 4-(2-{4-[3-((R)-2-Methyl-pyrrolidin-1-yl)-propoxy]-phenyl}-2-oxo-ethyl)-piperazine-1-carboxylic acid 4-fluoro-phenyl ester] | 234 to 236 °C | 0.0001 to 0.1 | 0.0001 to 0.1
COC[C@H]1CCCN1CCCOc1ccc(C(=O)CN2CCOCC2)cc1 [Example 71, 1-{4-[3-((R)-2-Methoxymethyl-pyrrolidin-1-yl)-propoxy]-phenyl}-2-morpholin-4-yl-ethanone] | > 200 °C (dec.) | > 1 | > 1
C[C@@H]1CCCN1CCCOc1c(Cl)cc(C(=O)CN2CCN(c3ccccc3)CC2)cc1Cl [Example 102] | 168 °C | 0.101 to 0.5 | > 1
O=C(CN1CCOCC1)c1ccc(OCCCN2CCCCC2)cc1F [Example 65, 1-[2-Fluoro-4-(3-piperidin-1-yl-propoxy)-phenyl]-2-morpholin-4-yl-ethanone] | 170 to 172 °C | 0.101 to 0.5 | > 1
CC(=O)N1CCN(CC(=O)c2ccc(OCCCN3CCC[C@H]3C)cc2)CC1 [Example 63, 2-(4-Acetyl-piperazin-1-yl)-1-{4-[3-((R)-2-methyl-pyrrolidin-1-yl)-propoxy]-phenyl}-ethanone] | 125 to 133 °C | 0.0001 to 0.1 | 0.0001 to 0.1
C[C@@H]1CCCN1CCCOc1ccc(C(=O)CN2CCC(F)(F)CC2)cc1 [Example 44, 2-(4,4-Difluoro-piperidin-1-yl)-1-{4-[3-((R)-2-methyl-pyrrolidin-1-yl)-propoxy]-phenyl}-ethanone] | 127 to 140 °C | 0.0001 to 0.1 | 0.0001 to 0.1
O=C(CN1CCOCC1)c1ccc(OCCCN2CCN3CCCCC3C2)cc1 (stereo not drawn) [Example 62, 2-Morpholin-4-yl-1-{4-[3-(octahydro-pyrido[1,2-a]pyrazin-2-yl)-propoxy]-phenyl}-ethanone] | 251 °C | 0.501 to 1 | > 1
CCC(=O)N1CCN(CC(=O)c2ccc(OCCCN3CCC[C@H]3C)cc2)CC1 [Example 144, 1-[4-(2-{4-[3-((R)-2-Methyl-pyrrolidin-1-yl)-propoxy]-phenyl}-2-oxo-ethyl)-piperazin-1-yl]-propan-1-one] | 65 to 70 °C | 0.0001 to 0.1 | 0.0001 to 0.1
CCOC(=O)N1CCN(CC(=O)c2ccc(OCCCN3CCC[C@H]3C)cc2)CC1 [Example 115, 4-(2-{4-[3-((R)-2-Methyl-pyrrolidin-1-yl)-propoxy]-phenyl}-2-oxo-ethyl)-piperazine-1-carboxylic acid ethyl ester] | 218 to 219 °C | 0.0001 to 0.1 | 0.0001 to 0.1
CC1CCC(C)N1CC(=O)c1ccc(OCCCN2CCC[C@H]2C)cc1 (stereo partly drawn) [Example 58, 2-(2,5-Dimethyl-pyrrolidin-1-yl)-1-{4-[3-((R)-2-methyl-pyrrolidin-1-yl)-propoxy]-phenyl}-ethanone] | 100 to 106 °C | 0.0001 to 0.1 | 0.0001 to 0.1

Other lines, results leading:

melting point | Ki (human H3 receptor) [µM] | Ki [1] [µM] | Structure (SMILES)
100.5 to 109.5 °C | 0.0001 to 0.1 | 0.0001 to 0.1 | C[C@@H]1CCCN1CCCOc1ccc(C(=O)CN2CCN(C(=O)c3ccc4ccccc4c3)CC2)cc1 [Example 109, 1-{4-(3-((R)-2-Methyl-pyrrolidin-1-yl)-propoxy]-phenyl}-2-[4-(naphthalene-2-carbonyl)-piperazin-1-yl]-ethanone]
140 °C | 0.0001 to 0.1 | 0.0001 to 0.1 | C[C@@H]1CCCN1CCCOc1ccc(C(=O)CN2CCN(c3ccccc3)CC2)cc1F [Example 143, 1-{3-Fluoro-4-[3-((R)-2-methyl-pyrrolidin-1-yl)-propoxy]-phenyl}-2-(4-phenyl-piperazin-1-yl)-ethanone]
220 to 226 °C | 0.0001 to 0.1 | 0.0001 to 0.1 | CC(C)C(=O)N1CCN(CC(=O)c2ccc(OCCCN3CCC[C@H]3C)cc2)CC1 [Example 77, 2-Methyl-1-[4-(2-{4-[3-((R)-2-methyl-pyrrolidin-1-yl)-propoxy]-phenyl}-2-oxo-ethyl)-piperazin-1-yl]-propan-1-one]
112 to 114 °C | 0.0001 to 0.1 | 0.101 to 0.5 | C[C@@H]1CCCN1CCCOc1ccc(C(=O)CN2CCN(c3ncccn3)CC2)cc1Cl [Example 125, 1-{3-Chloro-4-[3-((R)-2-methyl-pyrrolidin-1-yl)-propoxy]-phenyl}-2-(4-pyrimidin-2-yl-piperazin-1-yl)-ethanone]
116 to 125 °C | 0.0001 to 0.1 | 0.0001 to 0.1 | C[C@@H]1CCCN1CCCOc1ccc(C(=O)CN2CCN(C(=O)N3CCOCC3)CC2)cc1 [Example 70, 1-{4-[3-((R)-2-Methyl-pyrrolidin-1-yl)-propoxy]-phenyl}-2-[4-(morpholine-4-carbonyl)-piperazin-1-yl]-ethanone]
117 to 119 °C | 0.0001 to 0.1 | 0.0001 to 0.1 | C[C@@H]1CCCN1CCCOc1ccc(C(=O)CN2CCN(C(=O)c3ccccc3-c3ccccc3)CC2)cc1 [Example 152, 2-[4-(Biphenyl-2-carbonyl)-piperazin-1-yl]-1-{4-[3-((R)-2-methyl-pyrrolidin-1-yl)-propoxy]-phenyl}-ethanone]
232 °C | 0.0001 to 0.1 | 0.0001 to 0.1 | C[C@@H]1CCCN1CCCOc1ccc(C(=O)CN2CCN(C(=O)C3CCCCC3)CC2)cc1F [Example 146, 2-(4-Cyclohexanecarbonyl-piperazin-1-yl)-1-{3-fluoro-4-[3-((R)-2-methyl-pyrrolidin-1-yl)-propoxy]-phenyl}-ethanone]
225 to 229 °C | 0.0001 to 0.1 | 0.0001 to 0.1 | C[C@@H]1CCCN1CCCOc1ccc(C(=O)CN2CCN(C(=O)c3ccc(F)cc3)CC2)cc1 [Example 101, 2-[4-(4-Fluoro-benzoyl)-piperazin-1-yl]-1-{4-[3-((R)-2-methyl-pyrrolidin-1-yl)-propoxy]-phenyl}-ethanone]
219 °C | 0.0001 to 0.1 | 0.0001 to 0.1 | C[C@@H]1CCCN1CCCOc1ccc(C(=O)CN2CCN(c3ncccn3)CC2)cc1F [Example 119, 1-{3-Fluoro-4-[3-((R)-2-methyl-pyrrolidin-1-yl)-propoxy]-phenyl}-2-(4-pyrimidin-2-yl-piperazin-1-yl)-ethanone]
120 to 126 °C | 0.0001 to 0.1 | 0.0001 to 0.1 | CC(=O)N1CCN(CC(=O)c2ccc(OCCCN3CCC[C@H]3C)c(C)c2)CC1 [Example 156, 2-(4-Acetyl-piperazin-1-yl)-1-{3-methyl-4-[3-((R)-2-methyl-pyrrolidin-1-yl)-propoxy]-phenyl}-ethanone]
130 to 137 °C | 0.0001 to 0.1 | 0.0001 to 0.1 | C[C@@H]1CCCN1CCCOc1ccc(C(=O)CN2CCN(C(=O)c3ccccc3)CC2)cc1Cl [Example 113, 2-(4-Benzoyl-piperazin-1-yl)-1-{3-chloro-4-[3-((R)-2-methyl-pyrrolidin-1-yl)-propoxy]-phenyl}-ethanone]
86 °C | 0.0001 to 0.1 | 0.0001 to 0.1 | C[C@@H]1CCCN1CCCOc1ccc(C(=O)CN2CCN(S(C)(=O)=O)CC2)cc1F [Example 122, 1-{3-Fluoro-4-[3-((R)-2-methyl-pyrrolidin-1-yl)-propoxy]-phenyl}-2-(4-methanesulfonyl-piperazin-1-yl)-ethanone]
202 to 204 °C | 0.0001 to 0.1 | 0.0001 to 0.1 | C[C@@H]1CCCN1CCCOc1ccc(C(=O)CN2CCN(C(=O)C3CC3)CC2)cc1 [Example 89, 2-(4-Cyclopropanecarbonyl-piperazin-1-yl)-1-{4-[3-((R)-2-methyl-pyrrolidin-1-yl)-propoxy]-phenyl}-ethanone]
161 to 166.5 °C | 0.0001 to 0.1 | 0.0001 to 0.1 | Cc1cc(C(=O)CN2CCN(C(=O)C3CCCCC3)CC2)ccc1OCCCN1CCC[C@H]1C [Example 148, 2-(4-Cyclohexanecarbonyl-piperazin-1-yl)-1-{3-methyl-4-[3-((R)-2-methyl-pyrrolidin-1-yl)-propoxy]-phenyl}-ethanone]
75 °C | 0.0001 to 0.1 | 0.0001 to 0.1 | CC(C)C(=O)N1CCN(CC(=O)c2ccc(OCCCN3CCC[C@H]3C)c(F)c2)CC1 [Example 121, 1-[4-(2-{3-Fluoro-4-[3-((R)-2-methyl-pyrrolidin-1-yl)-propoxy]-phenyl}-2-oxoethyl)-piperazin-1-yl]-2-methyl-propan-1-one]
183 to 188 °C | 0.0001 to 0.1 | 0.0001 to 0.1 | C[C@@H]1CCCN1CCCOc1ccc(C(=O)CN2CCN(C(=O)OCc3ccccc3)CC2)cc1 [Example 138, 4-(2-{4-[3-((R)-2-Methyl-pyrrolidin-1-yl)-propoxy]-phenyl}-2-oxo-ethyl)-piperazine-1-carboxylic acid benzyl ester]
